From patent publication US20100021940A1, “Method for Determining the Activity of a Protease in a Sample” (ASTRAZENECA AB, priority 2006, published 2010)
“And” between values parts separate entries of the source, which are not always exact repeats. Identical values can stand only once.

Legend:
MMP8 = target: T1, MMP8 (Homo sapiens, UniProt P22894); test: Activity of purified MMP on substrate (reporter release); assay type: biochemical
T1 construct: purchased Calbiochem
Description: In order to confirm the specificity of the substrates for various MMPs, standard enzymatic assays were adapted to monitor the release of reporter. The reporter was either analysed by a LC-MS method as described in Example 3a, or by a LC-UV method as described in Example 4. Purified pro-MMP8 is purchased from Calbiochem. The enzyme (at 10 μg/ml) is activated by p-amino-phenyl-mercuric acetate (APMA) at 1 mM for 2.5 h, 35° C. The activated enzyme can be used to monitor activity of substrates as follows: MMP8 (200 ng/ml final concentration) is incubated for 90 minutes at 35° C.

MMP9 [1] = test: as above; assay type: biochemical, human
Excerpt: In order to confirm the specificity of the substrates for various MMPs, standard enzymatic assays were adapted to monitor the release of reporter. The reporter was either analysed by a LC-MS method as described in Example 3a, or by a LC-UV method as described in Example 4. […] The enzyme can be used to monitor activity of substrates as follows: […]

MMP9 [2] = test: MMP9 activity in whole blood via 4-nitroaniline in plasma after zymosan stimulation (LC-MS); assay type: biochemical, human; conditions: for 4-nitroaniline concentration, Mean: group mean; for 4-nitroaniline concentration: individual subjects, substrate 10 μM in plasma, 37° C., 60 min
Description: Samples of heparinised whole blood (1 mL) were stimulated with Zymosan (0, 50, 300, 600, 900 and 1200 μg/mL), vortexed or and incubated at 37° C. for 15 minutes. Plasma was collected after centrifugation, mixed with the substrate (10 μM) and incubated at 37° C. for 60 minutes. Methanol (300 μL), with (^13C)6-4-nitroaniline (1 μM) as internal standard, was added to a 100 μL aliquot of the above mixture and centrifuged to remove precipitated proteins. The supernatant (100 μL) was diluted with water (100 μL) and the extracts was injected directly onto a HPLC column.
Thaw, as required, pooled control human plasma, quality control and test samples. Add methyl 1-acetyl-L-prolyl-L-leucylglycyl-α-R-(4-nitrophenylamino)-glycyl-L-leucyl-β-alaninate (2 μL, solution D) to test plasma sample (200 μL) in 2 mL screw cap microtubes and mix on a vortex mixer.
Incubate tubes for 60 minutes at 37° C. in a shaking water bath. Prepare the calibration samples in plasma as detailed in Table 1 during the 60 minute incubation of test samples in step 3. Mix the samples on a vortex mixer.
Manually dispense aliquots (100 μL) of each plasma sample into separate wells of a 96 deep-well 2 mL plate using an appropriate pipette. (Note: start pipetting calibration, quality control and blank samples approximately 10 minutes before the test samples have finished their incubation in step 3). Dispense internal standard in methanol (300 μL) into each well using the Tecan. Cover the plate with polystyrene cover. Centrifuge at 3000 rpm for 5 minutes at room temperature.
Transfer an aliquot (100 μL) of the sample supernatant into separate wells of a 96 deep-well 2 mL plate using the Tecan. Mix water (100 μL) with each sample in the wells of a 96 deep-well polypropylene plate using the Tecan. Cover plate with pre-spilt 96 well seal.
Analyse 10 μL aliquots by LC/MS.
Whole blood samples were stimulated with varying concentrations of zymosan (0, 50, 300, 600, 900 and 1200 μg/mL). Plasma sample obtained from the stimulated whole blood samples were mixed with the substrate methyl 1-acetyl-L-prolyl-L-leucylglycyl-α-R-(4-nitrophenylamino)-glycyl-L-leucyl-β-alaninate at a plasma concentration of 10 μM and the samples were then incubated at 37° C. for 60 minutes. Aliquots (100 μL) of the human plasma were mixed with methanol (300 μL) containing [^13C]6-4-nitroaniline as an internal standard to precipitate the proteins and the sample was centrifuged and supernatants (100 μL) were mixed with water (100 μL). The extracts 10 μL were injected directly onto a Phenomenex Luna phenyl-hexyl column (50×2.0 mm, 5 μm) and the compounds eluted with a gradient mobile phase consisting of 0.01% ammonia/methanol. 4-nitroaniline was resolved from endogenous plasma constituents and the HPLC effluent was directed into the mass spectrometer via a heated nebuliser interface in negative mode. 4-nitroaniline and [^13C]6-4-nitroaniline were detected using single ion monitoring of the [M-H]^− ions at the mass to charge ratio of m/z 137 and 143 respectively. The method is described above.
The method is validated over the range 0.0500 to 10.0 μM for 4-nitroaniline based on the analysis of a 100 μL plasma sample. Quality control samples at concentrations of 0.100, 2.00 and 8.00 μM 4-nitroaniline were included to determine the acceptability of each analysis batch. The limit of quantification (LOQ) of the method is 0.0500 μM 4-nitroaniline for a 100 μL aliquot of plasma.

MMPs = test: Cleavage of separated diastereomers by MMPs to liberate the reporter; assay type: biochemical
[3] = healthy volunteers, visit 3, zymosan 0 μg
[4] = healthy volunteers, visit 3, zymosan 50 μg
[5] = healthy volunteers, visit 3, zymosan 300 μg
[6] = healthy volunteers, visit 3, zymosan 600 μg
[7] = healthy volunteers, visit 3, zymosan 900 μg
[8] = healthy volunteers, visit 3, zymosan 1200 μg
[9] = healthy volunteers, visit 4, zymosan 0 μg
[10] = healthy volunteers, visit 4, zymosan 50 μg
[11] = healthy volunteers, visit 4, zymosan 300 μg
[12] = healthy volunteers, visit 4, zymosan 600 μg
[13] = healthy volunteers, visit 4, zymosan 900 μg
[14] = healthy volunteers, visit 4, zymosan 1200 μg

T1 sequence (P22894 101-467): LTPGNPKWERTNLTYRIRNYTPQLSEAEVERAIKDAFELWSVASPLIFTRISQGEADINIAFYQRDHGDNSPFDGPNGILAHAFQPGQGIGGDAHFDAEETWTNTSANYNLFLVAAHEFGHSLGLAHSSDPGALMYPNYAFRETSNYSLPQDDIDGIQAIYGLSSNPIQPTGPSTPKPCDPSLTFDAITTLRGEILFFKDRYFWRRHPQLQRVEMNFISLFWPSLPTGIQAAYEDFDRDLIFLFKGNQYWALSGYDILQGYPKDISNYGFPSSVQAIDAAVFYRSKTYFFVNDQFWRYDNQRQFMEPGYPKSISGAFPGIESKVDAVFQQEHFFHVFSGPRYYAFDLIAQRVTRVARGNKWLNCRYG

COC(=O)CCNC(=O)[C@H](CC(C)C)NC(=O)[C@@H](NC(=O)CNC(=O)[C@H](CC(C)C)NC(=O)[C@@H]1CCCN1C(C)=O)Nc1ccc([N+](=O)[O-])cc1 [Example 1.1, Methyl 1-acetyl-L-prolyl-L-leucylglycyl-α-R-(4-nitrophenylamino)-glycyl-L-leucyl-β-alaninate]
Activity (MMP8; 30 μM substrate, MMP Conc. 2.7 nM, Calbiochem #444229): 1.1 units/s
Activity of selected substrates with MMPs (MMP8; Table 1b, MMP8): 120.4 units/s (molRXH/molEnz * s)
Activity (MMP9 [1]; 30 μM substrate, MMP Conc. 0.27 nM, AZL0064): 7.4 units/s
Activity of selected substrates with MMPs (MMP9 [1]; Table 1b, MMP9): 62.9 units/s (molRXH/molEnz * s)
4-nitroaniline concentration, Mean (MMP9 [2]; COPD patients, visit 3, zymosan 0 μg): 0.128 µM
4-nitroaniline concentration, Mean (MMP9 [2]; COPD patients, visit 3, zymosan 50 μg): 1.58 µM
4-nitroaniline concentration, Mean (MMP9 [2]; COPD patients, visit 3, zymosan 300 μg): 3.56 µM
4-nitroaniline concentration, Mean (MMP9 [2]; COPD patients, visit 3, zymosan 600 μg): 4.33 µM
4-nitroaniline concentration, Mean (MMP9 [2]; COPD patients, visit 3, zymosan 900 μg): 4.77 µM
4-nitroaniline concentration, Mean (MMP9 [2]; COPD patients, visit 3, zymosan 1200 μg): 4.68 µM
4-nitroaniline concentration, Mean (MMP9 [2]; COPD patients, visit 4, zymosan 0 μg): 0.141 µM
4-nitroaniline concentration, Mean (MMP9 [2]; COPD patients, visit 4, zymosan 50 μg): 1.51 µM
4-nitroaniline concentration, Mean (MMP9 [2]; COPD patients, visit 4, zymosan 300 μg): 3.31 µM
4-nitroaniline concentration, Mean (MMP9 [2]; COPD patients, visit 4, zymosan 600 μg): 4.03 µM
4-nitroaniline concentration, Mean (MMP9 [2]; COPD patients, visit 4, zymosan 900 μg): 4.41 µM
4-nitroaniline concentration, Mean (MMP9 [2]; COPD patients, visit 4, zymosan 1200 μg): 4.54 µM
4-nitroaniline concentration, Mean (MMP9 [2]; [3]): 0.121 µM
4-nitroaniline concentration (MMP9 [2]; [3]): 0.145 μM (2×) and 0.132 μM and 0.126 μM and 0.0917 μM and 0.124 μM and 0.104 μM and 0.0963 μM and 0.118 μM and 0.123 μM
4-nitroaniline concentration, Mean (MMP9 [2]; [4]): 1.22 µM
4-nitroaniline concentration (MMP9 [2]; [4]): 1.13 μM (2×) and 1.82 μM and 2.10 μM and 1.52 μM and 0.988 μM and 0.836 μM and 0.878 μM and 0.646 μM and 1.16 μM
4-nitroaniline concentration, Mean (MMP9 [2]; [5]): 2.82 µM
4-nitroaniline concentration (MMP9 [2]; [5]): 2.48 µM and 3.68 µM and 2.65 µM and 4.32 µM and 3.63 µM and 2.82 µM and 2.31 µM and 2.42 µM and 1.56 µM and 2.28 µM
4-nitroaniline concentration, Mean (MMP9 [2]; [6]): 3.36 µM
4-nitroaniline concentration (MMP9 [2]; [6]): 3.00 µM and 4.26 µM and 2.98 µM and 4.39 µM and 4.23 µM and 3.90 µM and 3.08 µM and 2.99 µM and 1.84 µM and 2.95 µM
4-nitroaniline concentration, Mean (MMP9 [2]; [7]): 3.52 µM
4-nitroaniline concentration (MMP9 [2]; [7]): 3.05 µM and 4.50 µM and 3.14 µM and 4.38 µM and 4.24 µM and 3.98 µM and 3.45 µM and 3.35 µM and 2.07 µM and 2.99 µM
4-nitroaniline concentration, Mean (MMP9 [2]; [8]): 3.59 µM
4-nitroaniline concentration (MMP9 [2]; [8]): 3.07 µM and 4.53 µM and 2.99 µM and 4.28 µM and 4.45 µM and 4.41 µM and 3.53 µM and 3.50 µM and 2.14 µM and 3.02 µM
4-nitroaniline concentration, Mean (MMP9 [2]; [9]): 0.131 µM
4-nitroaniline concentration (MMP9 [2]; [9]): 0.154 µM and 0.192 µM and 0.106 µM and 0.0977 µM and 0.130 µM and 0.199 µM and 0.0803 µM
4-nitroaniline concentration, Mean (MMP9 [2]; [10]): 0.986 µM
4-nitroaniline concentration (MMP9 [2]; [10]): 1.49 µM and 2.11 µM and 0.808 µM and 0.616 µM and 0.732 µM and 0.795 µM and 0.758 µM
4-nitroaniline concentration, Mean (MMP9 [2]; [11]): 2.39 µM
4-nitroaniline concentration (MMP9 [2]; [11]): 2.81 µM and 4.29 µM and 1.92 µM and 1.68 µM and 1.98 µM and 2.29 µM and 2.22 µM
4-nitroaniline concentration, Mean (MMP9 [2]; [12]): 2.84 µM
4-nitroaniline concentration (MMP9 [2]; [12]): 3.17 µM and 4.36 µM and 2.39 µM and 2.12 µM and 2.41 µM and 3.36 µM
4-nitroaniline concentration, Mean (MMP9 [2]; [13]): 3.26 µM
4-nitroaniline concentration (MMP9 [2]; [13]): 3.27 μM and 5.53 μM and 2.69 μM and 2.46 μM and 3.03 μM and 3.48 μM (2×)
4-nitroaniline concentration, Mean (MMP9 [2]; [14]): 3.39 µM
4-nitroaniline concentration (MMP9 [2]; [14]): 3.32 µM and 5.28 µM and 2.84 µM and 2.85 µM and 3.15 µM and 4.00 µM
4-nitroaniline concentration, Mean (MMP9 [2]; smokers, visit 3, zymosan 0 μg): 0.149 µM
4-nitroaniline concentration, Mean (MMP9 [2]; smokers, visit 3, zymosan 50 μg): 1.45 µM
4-nitroaniline concentration, Mean (MMP9 [2]; smokers, visit 3, zymosan 300 μg): 3.35 µM
4-nitroaniline concentration, Mean (MMP9 [2]; smokers, visit 3, zymosan 600 μg): 4.10 µM
4-nitroaniline concentration, Mean (MMP9 [2]; smokers, visit 3, zymosan 900 μg): 4.45 µM
4-nitroaniline concentration, Mean (MMP9 [2]; smokers, visit 3, zymosan 1200 μg): 4.47 µM
4-nitroaniline concentration, Mean (MMP9 [2]; smokers, visit 4, zymosan 0 μg): 0.142 µM
4-nitroaniline concentration, Mean (MMP9 [2]; smokers, visit 4, zymosan 50 μg): 1.66 µM
4-nitroaniline concentration, Mean (MMP9 [2]; smokers, visit 4, zymosan 300 μg): 3.32 µM
4-nitroaniline concentration, Mean (MMP9 [2]; smokers, visit 4, zymosan 600 μg): 3.76 µM
4-nitroaniline concentration, Mean (MMP9 [2]; smokers, visit 4, zymosan 900 μg): 4.19 µM
4-nitroaniline concentration, Mean (MMP9 [2]; smokers, visit 4, zymosan 1200 μg): 4.41 µM
Cleavage by MMPs to liberate the reporter (MMPs): rapidly cleaved by MMPs
